According to patent US20020160459A1, “PROCESS FOR PRODUCTION OF N-GLUCOSAMINE” (priority 1999, published 2002):
Where two headings read alike, the source gives them in different places.

Experiments:
[1] = target: T1, N-glucosamine-6-phosphate synthase (Escherichia coli, UniProt P17169); details: substrate of the enzyme from Escherichia coli; cited from earlier work
[2] = target: T1, N-glucosamine-6-phosphate synthase; experiment: Product inhibition of N-glucosamine-6-phosphate synthase, spectrophotometric assay in crude cell extracts; assay type: biochemical; details: FIG. 5; assays run with various concentrations of added product
Description: N-glucosamine-6-phosphate synthase activity was measured in production strains containing integrated T7-glmS cassettes after growth in LB medium with and without IPTG (Table 2). N-glucosamine-6-phosphate synthase was assayed in crude cell extracts using either […] or spectrophotometric assays (Badet et al., 1987, Biochemistry 26:1940-1948) as described below. The extracts used for those assays were prepared by suspending washed cell pellets in 5 mL of 0.1 M KH2PO4/K2HPO4, pH 7.5 per gram of wet cell paste, passing the suspension through a French press at 16,000 psi, and centrifuging the disrupted cell suspension at 35,000-40,000 ×g for 15 to 20 minutes. The supernatant was used as the source of enzyme for the assay.
In the spectrophotometric assay, 1 mL reactions containing 50 mM KH2PO4/K2HPO4, 10 mM fructose-6-phosphate, 6 mM L-glutamine, 10 mM KCl, 0.6 mM acetylpyridine adenine dinucleotide (APAD), and 50-60 Units of L-glutamic dehydrogenase (Sigma Type II from bovine liver) were run at room temperature. The activity was followed by monitoring the absorbance at 365 nm after the addition of extract and corrected for the small absorbance increase observed in the absence of extract. The activity was calculated using a molar extinction coefficient for APAD of 9100. […]

[3] = target: T1, N-glucosamine-6-phosphate synthase; details: White 1968, Biochem. J. 106:847-858; cited from earlier work

T1 sequence (P17169 2-609): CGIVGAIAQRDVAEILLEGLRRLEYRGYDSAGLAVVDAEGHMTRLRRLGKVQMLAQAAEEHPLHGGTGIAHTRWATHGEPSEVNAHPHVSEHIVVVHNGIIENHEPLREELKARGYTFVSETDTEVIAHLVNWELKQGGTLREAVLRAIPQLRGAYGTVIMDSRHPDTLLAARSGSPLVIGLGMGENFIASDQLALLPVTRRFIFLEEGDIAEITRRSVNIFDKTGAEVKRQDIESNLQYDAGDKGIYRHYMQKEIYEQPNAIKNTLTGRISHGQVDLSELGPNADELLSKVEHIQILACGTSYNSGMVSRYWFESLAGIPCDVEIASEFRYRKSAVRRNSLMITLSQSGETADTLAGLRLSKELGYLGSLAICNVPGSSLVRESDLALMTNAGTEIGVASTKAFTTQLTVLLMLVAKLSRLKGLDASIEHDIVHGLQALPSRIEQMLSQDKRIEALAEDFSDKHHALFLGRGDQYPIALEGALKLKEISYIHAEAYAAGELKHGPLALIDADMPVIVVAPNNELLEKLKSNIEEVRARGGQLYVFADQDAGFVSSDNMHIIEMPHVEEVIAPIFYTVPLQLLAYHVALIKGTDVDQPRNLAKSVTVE

SMILES | Km [1] | inhibition of N-glucosamine-6-phosphate synthase [2] | inhibition of N-glucosamine-6-phosphate synthase [3]
NC(=O)CC[C@H](N)C(=O)O [glutamine] | 400 µM |  | 
O=C(CO)[C@@H](O)[C@H](O)[C@H](O)COP(=O)(O)O [fructose-6-phosphate] | 2000 µM |  | 
N[C@H]1C(O)O[C@H](CO)[C@@H](O)[C@@H]1O (some centres unmarked) [N-glucosamine] |  | slightly inhibited | 
N[C@@H]1[C@@H](O)[C@H](O)[C@@H](COP(=O)(O)O)O[C@@H]1O [N-glucosamine-6-phosphate] |  | significantly inhibited | inhibited
